The values below are quoted from earlier work in US12109298B2, “Improving the fastness to washing of pigment-containing dyes by using an oxidative pretreatment agent” (Henkel AG & Co. KGaA, priority 2020, dated 2024).

Where two headings read alike, the source gives them in different places.

For series [1] the following is noted: 25° C.
The conditions of series [2]: 5% solution in water.

Turning to `CCN(Cc1cccc(S(=O)(=O)[O-])c1)c1ccc(C(=C2C=CC(=[N+](CC)Cc3cccc(S(=O)(=O)[O-])c3)C=C2)c2ccccc2S(=O)(=O)[O-])cc1.[Na+].[Na+]` [Acid Blue 9], in series [1], the solubility in water result is “more than 20 wt. %”. For `O=S(=O)([O-])c1ccc(N=Nc2c(O)ccc3ccccc23)cc1.[Na+]` [Acid Orange 7, sodium salt of 4-[(2-hydroxy-1-naphthyl)azo]benzene sulfonate], the solubility in water entry in series [1] is “more than 7 g/L”. `Nc1cc(S(=O)(=O)[O-])cc2cc(S(=O)(=O)[O-])c(N=Nc3ccccc3)c(O)c12.[Na+].[Na+]` [Acid Red 33, diantrium salt of 5-amino-4-hydroxy-3-(phenylazo)-naphthalene-2,7-disulphonate]: in series [1], the solubility in water is 2500 µg/mL. For the compound `O=C([O-])c1c(Cl)c(Cl)c(Cl)c(Cl)c1-c1c2c(Br)cc(=O)c(Br)c-2oc2c(Br)c(O)cc(Br)c12.O=C([O-])c1c(Cl)c(Cl)c(Cl)c(Cl)c1-c1c2c(Br)cc(=O)c(Br)c-2oc2c(Br)c(O)cc(Br)c12.[Na+].[Na+]` [Acid Red 92, disodium salt of 3,4,5,6-tetrachloro-2-(1,4,5,8-tetrabromo-6-hydroxy-3-oxoxanthen-9-yl)benzoic acid], the solubility in water result in series [1] is recorded as “greater than 10 g/L”. As to `O=C([O-])C1=NN(c2ccc(S(=O)(=O)[O-])cc2)C(=O)C1N=Nc1ccc(S(=O)(=O)[O-])cc1.[Na+].[Na+].[Na+]` (stereo not drawn) [Acid Yellow 23, trisodium salt of 4,5-dihydro-5-oxo-1-(4-sulfophenyl)-4-((4-sulfophenyl)azo)-1H-pyrazole-3-carboxylic acid], the solubility in water result in series [1] (in words) is given as “readily soluble in water”. For `O=P([O-])(O)O.[K+]` [Potassium dihydrogen phosphate], the pH value in series [2] is 4.4.
